Measured values from article PMC9959553, “Promising Antifungal Molecules against Mucormycosis Agents Identified from Pandemic Response Box®: In Vitro and In Silico Analyses” (Journal of Fungi, 2023).

The molecules below were run on R. oryzae UCP1295 (assay: Screening of the Pandemic Response Box library at 5 µM). Conditions: 48 h, Table S1, mean of the four values.
Type: cell-based, Rhizopus oryzae
Description: Rhizopus oryzae UCP is the most prevalent Mucorales species in human infections and was used as a reference strain to screen the Pandemic Response Box® library. Screening was performed according to Rollin-Pinheiro and colleagues. Each compound was diluted in RPMI 1640 medium (Sigma Chemical Co., St. Louis, MO, USA), supplemented with 2% glucose and buffered with 3-(N-morpholino) propanesulfonic acid (MOPS) (Sigma Chemical Co., St. Louis, MO, USA) (0.165 mol/L, pH 7.2, from here on referred to as ‘supplemented RPMI’) to reach 5 μM in 96-well microtiter plates. Posaconazole (5 μM) and supplemented RPMI containing 1% DMSO were used as controls (both from Sigma Chemical Co., St. Louis, MO, USA). Conidia (2 × 10^5/mL) were added and incubated for 48 h at 37 °C in a 5% CO2 atmosphere. […] An inhibition of at least 60% was defined as the cut-off to select the promising drugs with antifungal activity against the Rhizopus species.

SMILES	% of growth inhibition, Mean [%]
COc1cc(Cc2cnc(N)nc2N)cc(OC)c1OC [MMV000028]	-4.5
COc1ccc(C[C@@H](C)[C@@H](C)Cc2ccc(OC)c(OC)c2)cc1OC [MMV1581036]	-8.8
NC(=O)c1cnccn1 [MMV003249]	-5.2
COc1ccc(SCC(=O)N2c3ccccc3Sc3ccccc32)cc1 [MMV1578573]	-3.7
Cl.Nc1nc(-c2ccccc2)nc2c1ncn2[C@@H]1O[C@H](COS(=O)(=O)NC(=O)c2ccccc2O)[C@@H](O)[C@H]1O [MMV1582488]	-7.5
Cc1[nH]c2ccccc2c1CC(=O)N[C@@H](Cc1ccccc1)C(=O)N(C)c1ccccc1 [MMV1580798]	-2.6
CC(C)(C)c1ccc(C(=O)NC(=O)N2CCCc3ccccc32)cc1 [MMV1782212]	-4.9
NC(=O)C(c1ccccc1)(c1ccccc1)[C@H]1CCCN(CCc2ccc3c(c2)CCO3)C1 [MMV1782412]	-1.5
O=C(c1cc(O)nc2ccccc12)N1CCN(c2ccccc2)CC1 [MMV596723]	-7.3
N=c1n(CCN2CCCCC2)c2ccccc2n1CC(O)COc1ccc(Cl)cc1Cl (stereo not drawn) [MMV394033]	-0.8
O=C(c1ccc(F)cc1)N1CCN2C(=O)c3ccccc3C12c1ccccc1 (stereo not drawn) [MMV1165877]	-2.4
Nc1nc(=O)c(Br)c(-c2ccccc2)[nH]1 [MMV690540]	-23.8
CC(=O)N[C@H](C)C(=O)N[C@H](Cc1ccccc1)C(=O)O [MMV1580845]	-37.6
O=S(=O)(Nc1ccc(-n2cccc2)cc1)c1ccc(Cl)c(Cl)c1 [MMV1505642]	-4.1
Cc1cc(CCOc2c(C)cc(-c3nnn(C)n3)cc2C)on1 [MMV1782349]	-3.0
COc1ccc2sc3c(c2c1)NC(C)CNC3=O (stereo not drawn) [MMV1782115]	-2.6
CCn1cc(C(=O)O)c(=O)c2cc(F)c(N3CCNC(C)C3)c(F)c21.Cl (stereo not drawn) [MMV002350]	-4.3

SMILES	% of growth inhibition, Mean [%]
Nc1nc(-c2ccccc2)nc2[nH]nc(Nc3ccc(C(F)(F)F)cc3)c12 [MMV1633968]	4.3
C[C@H](NC(CC(=O)c1ccccc1C(F)(F)F)C(=O)O)c1ccccc1 (stereo partly drawn) [MMV1579778]	-13.5
OC1O[C@H](CSc2ccc(F)cc2)[C@@H](O)[C@H]1O (stereo partly drawn) [MMV1581550]	-29.6
NC(=O)c1cnc2ccc(S(=O)(=O)c3ccccc3)cc2c1Nc1ccc(O)cc1 [MMV1580848]	-15.6
COc1cc(C(C)(C)CCCC(C)C)cc(OC)c1OC [MMV1782102]	-11.2
O=C(Nc1nnc(-c2ccc(Cl)cc2)o1)c1nc2ccccc2s1 [MMV102833]	1.7
C[C@H]1[C@@H](c2cccc(C(F)(F)F)c2)OC(=O)N1C(=O)NCc1cncc2ccccc12 [MMV1593533]	-13.8
Cc1ccn2c(C(=O)NCc3ccccc3)c(C)nc2c1 [MMV1579847]	-7.2
Clc1cc2nc(C3CCNCC3)n(Cc3ccc(CNCCc4c[nH]cn4)cc3)c2cc1Cl [MMV1580842]	0.4
CN(C(=O)C1(c2ccc(Cl)cc2)CCC1)c1ccccc1 [MMV1581030]	-7.5
CN1c2ccc(Cl)cc2N(c2ccccc2)C(=O)c2cn(Cc3ccc(CN4CCOCC4)cc3)nc21 [MMV1782222]	3.4
COc1cc(NS(=O)(=O)c2ccc(C)cc2)c2ncccc2c1 [MMV098836]	48.1
NC(=O)c1ccc(I)c([N+](=O)[O-])c1 [MMV1581035]	-5.0
Cc1ccc(S(=O)(=O)Nc2cccc3cccnc23)cc1 [MMV233495]	-0.4
OB1OCc2c1ccc(Cl)c2F [MMV1782226]	-20.0
COc1ccc(NS(=O)(=O)c2ccc(Cl)s2)cn1 [MMV1580499]	-3.0
